This note sets out measurements from ChEMBL document CHEMBL1145743, “High-throughput synthesis and optimization of thrombin inhibitors via urazole alpha-addition and Michael addition” (Bioorg Med Chem Lett, 2003).

The Ki is the dissociation constant of the complex between target and ligand, obtained from inhibition or displacement. A lower Ki goes with a stronger hold on the target.

Assay [1] has as its target T1, Prothrombin (Homo sapiens, UniProt P00734). Description: Inhibitory activity against human thrombin.
Assay [2] concerns the target T1, Prothrombin. The settings on record: at 400 nM.
Description: Inhibitory activity against thrombin at 400 nM; NA=not active
For assay [3], the target named is T1, Prothrombin. Description: Inhibitory activity against thrombin; NA=not active.
For assay [4], the target named is T1, Prothrombin. Description: Inhibitory activity against thrombin at concentration 400 nM; NA: Not active.

Active and inactive are the calls of the source. No cut-off for these calls is given here.

Regarding `COC(=O)C(CSC1CCCCC1)n1c(=O)n2n(c1=O)C(C(=O)NCc1ccc(N)nc1C)C=CC2` (configuration not stated), the Ki at Prothrombin [1] worked out at 28 nM.

On Prothrombin [1], `Cc1nc(N)ccc1CNC(=O)C1C=CCn2c(=O)n(C(CSc3ccc(Br)cc3)C(=O)N3CCOCC3)c(=O)n21` (configuration not stated) came in with a Ki of 39 nM.

As to `N[C@H]1CC[C@H](CNC(=O)C2C=CCn3c(=O)n(C(CNC4CCCCC4)C(=O)O)c(=O)n32)CC1` (some centres not stated), the inhibition result at Prothrombin [2] is “inactive”.

In the case of `N[C@H]1CC[C@H](CNC(=O)C2C=CCn3c(=O)n(C(CSc4ccc(Br)cc4)C(=O)O)c(=O)n32)CC1` (some centres not stated), affinity on Prothrombin [1] was put at a Ki of 2.6 nM.

On Prothrombin [1], `COc1ccc(SCC(C(=O)O)n2c(=O)n3n(c2=O)C(C(=O)NCc2ccc(N)nc2C)C=CC3)cc1` (configuration not stated) registered a Ki of 29 nM.

Consider `Cc1nc(N)ccc1CNC(=O)C1C=CCn2c(=O)n(C(CNCC(C)C)C(=O)O)c(=O)n21` (configuration not stated), for which the inhibition result at Prothrombin [2] is “inactive”.

`Cc1nc(N)ccc1CNC(=O)C1C=CCn2c(=O)n(C(CSc3ccc(Cl)cc3)C(=O)OC(C)C)c(=O)n21` (configuration not stated) returned a Ki at Prothrombin [1] of 1.5 nM.

Consider `Cc1nc(N)ccc1CNC(=O)C1C=CCn2c(=O)n(C(CSc3ccccc3)C(=O)O)c(=O)n21` (configuration not stated), for which the Ki at Prothrombin [1] turned out to be 15 nM.

On to `CC(=O)Nc1ccc(SCC(C(=O)O)n2c(=O)n3n(c2=O)C(C(=O)NC[C@H]2CC[C@H](N)CC2)C=CC3)cc1` (some centres not stated), for which the inhibition entry at Prothrombin [2] was “inactive”.

In turn, `Cc1nc(N)ccc1CNC(=O)C1C=CCn2c(=O)n(C(CSc3ccc(Cl)c(Cl)c3)C(=O)N3CCCC3)c(=O)n21` (configuration not stated) yielded a Ki on Prothrombin [1] of 18 nM.

On Prothrombin [1], `N[C@H]1CC[C@H](CNC(=O)C2C=CCn3c(=O)n(C(CSc4ccc(Cl)c(Cl)c4)C(=O)O)c(=O)n32)CC1` (some centres not stated) registered an inhibition constant (Ki) of 13 nM.

As for `Cc1nc(N)ccc1CNC(=O)C1C=CCn2c(=O)n(C(CSc3ccc(Cl)c(Cl)c3)C(=O)OC3CCCCC3)c(=O)n21` (configuration not stated), on Prothrombin [1], the inhibition constant (Ki) came out at 87 nM.

As to `Cc1nc(N)ccc1CNC(=O)C1C=CCn2c(=O)n(C(CNCc3ccccc3)C(=O)O)c(=O)n21` (configuration not stated), the inhibition result at Prothrombin [2] is “inactive”.

Consider `COC(=O)C(CSc1ccc(C)cc1C)n1c(=O)n2n(c1=O)C(C(=O)NCc1ccc(N)nc1C)C=CC2` (configuration not stated), for which, on Prothrombin [2], the inhibition result is “inactive”.

On to `Cc1nc(N)ccc1CNC(=O)C1C=CCn2c(=O)n(C(CSc3ccc(Cl)c(Cl)c3)C(=O)O)c(=O)n21` (configuration not stated), for which the Ki at Prothrombin [1] was 22 nM.

At Prothrombin [1], `Cc1nc(N)ccc1CNC(=O)C1C=CCn2c(=O)n(C(CSc3ccc(Cl)cc3)C(=O)N3CCOCC3)c(=O)n21` (configuration not stated) registered a Ki of 7.7 nM.

`Cc1nc(N)ccc1CNC(=O)C1C=CCn2c(=O)n(C(CSCC(C)C)C(=O)O)c(=O)n21` (configuration not stated): the inhibition result on Prothrombin [2] was “inactive”.

Molecule `COC(=O)C(CSc1ccc(Cl)c(Cl)c1)n1c(=O)n2n(c1=O)C(C(=O)NCc1ccc(N)nc1C)C=CC2` (configuration not stated) showed an inhibition constant (Ki) at Prothrombin [1] of 78 nM.

Consider `Cc1nc(N)ccc1CNC(=O)C1C=CCn2c(=O)n(C(CSc3ccc(Br)cc3)C(=O)OC(C)C)c(=O)n21` (configuration not stated), for which, on Prothrombin [1], the Ki worked out at 0.087 nM.

Turning to `Cc1nc(N)ccc1CNC(=O)C1C=CCn2c(=O)n(C(CSc3ccc(Br)cc3)C(=O)O)c(=O)n21` (configuration not stated), the Ki result at Prothrombin [3] is reported as “Not Active”. For the same molecule, at Prothrombin [2], the inhibition result was “inactive”.

For the molecule `COc1ccc(SCC(C(=O)O)n2c(=O)n3n(c2=O)C(C(=O)NC[C@H]2CC[C@H](N)CC2)C=CC3)cc1` (some centres not stated), the affinity at Prothrombin [1], expressed as Ki, was 4.7 nM.

Regarding `COC(=O)C(CSCC(O)CO)n1c(=O)n2n(c1=O)C(C(=O)NCc1ccc(N)nc1C)C=CC2` (configuration not stated), the inhibition entry at Prothrombin [2] was “inactive”.

With `COC(=O)C(CSc1ccc(Br)cc1)n1c(=O)n2n(c1=O)C(C(=O)NCc1ccc(N)nc1C)C=CC2` (configuration not stated), the affinity at Prothrombin [1] corresponds to a Ki of 83 nM.

On Prothrombin [1], `Cc1nc(N)ccc1CNC(=O)C1C=CCn2c(=O)n(C(CSC3CCCCC3)C(=O)O)c(=O)n21` (configuration not stated) showed a Ki of 11 nM.

For the molecule `COC(=O)C(CSc1ccccc1)n1c(=O)n2n(c1=O)C(C(=O)NC[C@H]1CC[C@H](N)CC1)C=CC2` (some centres not stated), the inhibitory constant (Ki) on Prothrombin [1] is 2.9 nM.

In the case of `COC(=O)C(CSc1ccc(OC)cc1)n1c(=O)n2n(c1=O)C(C(=O)NCc1ccc(N)nc1C)C=CC2` (configuration not stated), the Ki at Prothrombin [1] worked out at 80 nM.

Consider `CCCSCC(C(=O)O)n1c(=O)n2n(c1=O)C(C(=O)NC[C@H]1CC[C@H](N)CC1)C=CC2` (some centres not stated), for which the inhibition entry on Prothrombin [4] was “inactive”.

For `N[C@H]1CC[C@H](CNC(=O)C2C=CCn3c(=O)n(C(CSC4CCCCC4)C(=O)O)c(=O)n32)CC1` (some centres not stated), the Ki on Prothrombin [1] was 53 nM.

`COC(=O)C(CNC1CCCCC1)n1c(=O)n2n(c1=O)C(C(=O)NCc1ccc(N)nc1C)C=CC2` (configuration not stated): the inhibition result on Prothrombin [2] is “inactive”.

Regarding `Cc1nc(N)ccc1CNC(=O)C1C=CCn2c(=O)n(C(CSc3ccc(Br)cc3)C(=O)OC3CCCCC3)c(=O)n21` (configuration not stated), the Ki on Prothrombin [1] came to 1.5 nM.

`N[C@H]1CC[C@H](CNC(=O)C2C=CCn3c(=O)n(C(CSc4ccccc4)C(=O)O)c(=O)n32)CC1` (some centres not stated) gave a Ki on Prothrombin [1] of 36 nM.

Molecule `COC(=O)C(CSc1ccc(OC)cc1)n1c(=O)n2n(c1=O)C(C(=O)NC[C@H]1CC[C@H](N)CC1)C=CC2` (some centres not stated) displayed a Ki on Prothrombin [1] of 0.75 nM.

The molecule `Cc1nc(N)ccc1CNC(=O)C1C=CCn2c(=O)n(C(CSc3ccc(Cl)cc3)C(=O)OC3CCCCC3)c(=O)n21` (configuration not stated) displayed a Ki at Prothrombin [1] of 0.057 nM.

As to `Cc1nc(N)ccc1CNC(=O)C1C=CCn2c(=O)n(C(CSc3ccc(Br)cc3)C(=O)N3CCCC3)c(=O)n21` (configuration not stated), affinity on Prothrombin [1] was put at a Ki of 30 nM.

Molecule `Cc1nc(N)ccc1CNC(=O)C1C=CCn2c(=O)n(C(CSc3ccc(Cl)cc3)C(=O)O)c(=O)n21` (configuration not stated) registered a Ki on Prothrombin [1] of 32 nM.

For the molecule `CCCSCC(C(=O)O)n1c(=O)n2n(c1=O)C(C(=O)NCc1ccc(N)nc1C)C=CC2` (configuration not stated), the inhibition result on Prothrombin [2] is “inactive”.

On Prothrombin [1], `COC(=O)C(CSc1ccc(Cl)cc1)n1c(=O)n2n(c1=O)C(C(=O)NCc1ccc(N)nc1C)C=CC2` (configuration not stated) came in with an inhibition constant (Ki) of 82 nM.

For `Cc1nc(N)ccc1CNC(=O)C1C=CCn2c(=O)n(C(CSc3ccc(Cl)c(Cl)c3)C(=O)OC(C)C)c(=O)n21` (configuration not stated), on Prothrombin [1], the affinity, expressed as Ki, was 53 nM.

Turning to `COC(=O)C(CSc1ccc(Br)cc1)n1c(=O)n2n(c1=O)C(C(=O)NC[C@H]1CC[C@H](N)CC1)C=CC2` (some centres not stated), the Ki at Prothrombin [1] was 0.023 nM. Besides, the inhibition result on Prothrombin [2] was “inactive”.

With `COC(=O)C(CSc1ccccc1)n1c(=O)n2n(c1=O)C(C(=O)NCc1ccc(N)nc1C)C=CC2` (configuration not stated), the inhibitory constant (Ki) on Prothrombin [1] came to 32 nM.

On Prothrombin [1], `CCOC(=O)C(CSc1ccc(Cl)c(Cl)c1)n1c(=O)n2n(c1=O)C(C(=O)NCc1ccc(N)nc1C)C=CC2` (configuration not stated) displayed a Ki of 28 nM.

As for `Cc1nc(N)ccc1CNC(=O)C1C=CCn2c(=O)n(C(CSc3ccc(Cl)cc3)C(=O)N3CCCC3)c(=O)n21` (configuration not stated), affinity on Prothrombin [1] was put at a Ki of 24 nM.

For the molecule `CCOC(=O)C(CSc1ccc(Cl)cc1)n1c(=O)n2n(c1=O)C(C(=O)NCc1ccc(N)nc1C)C=CC2` (configuration not stated), at Prothrombin [3], the Ki result is reported as “Not Active”.

On to `N[C@H]1CC[C@H](CNC(=O)C2C=CCn3c(=O)n(C(CSc4ccc(Cl)cc4)C(=O)O)c(=O)n32)CC1` (some centres not stated), for which the Ki on Prothrombin [1] was found to be 5.7 nM.

In turn, `COC(=O)C(CSc1ccc(Cl)c(Cl)c1)n1c(=O)n2n(c1=O)C(C(=O)NC[C@H]1CC[C@H](N)CC1)C=CC2` (some centres not stated) had an inhibition constant (Ki) on Prothrombin [1] of 0.24 nM.

As for `Cc1nc(N)ccc1CNC(=O)C1C=CCn2c(=O)n(C(CSc3ccc(Cl)c(Cl)c3)C(=O)N3CCOCC3)c(=O)n21` (configuration not stated), the Ki entry at Prothrombin [3] is listed as “Not Active”.

As for `COC(=O)C(CNCC(C)C)n1c(=O)n2n(c1=O)C(C(=O)NCc1ccc(N)nc1C)C=CC2` (configuration not stated), the inhibition entry on Prothrombin [2] is “inactive”.

`CCOC(=O)C(CSc1ccc(Br)cc1)n1c(=O)n2n(c1=O)C(C(=O)NCc1ccc(N)nc1C)C=CC2` (configuration not stated) displayed a Ki on Prothrombin [1] of 0.27 nM.

Regarding `COC(=O)C(CSC1CCCCC1)n1c(=O)n2n(c1=O)C(C(=O)NC[C@H]1CC[C@H](N)CC1)C=CC2` (some centres not stated), the Ki at Prothrombin [1] came out at 91 nM.

Consider `COC(=O)C(CSc1ccc(Cl)cc1)n1c(=O)n2n(c1=O)C(C(=O)NC[C@H]1CC[C@H](N)CC1)C=CC2` (some centres not stated), for which the Ki at Prothrombin [1] was 0.32 nM.
